Source: patent publication US20240254095A1, “NMDA Receptor Antagonist and Use Thereof” (priority 2021, published 2024)
“Also recorded” adds a separate entry of the source. Where a name gives a salt, the structure may show the parent alone. Read-outs that look alike come from different tables or passages of the source.

Assays:
[1] = biological target: T1, human NMDA receptors GluN1 and GluN2A subunits (GluN2A-containing NMDAR) (Homo sapiens, UniProt Q05586+Q12879); assay: cell-based
T1 construct: expressed in transfected cells; host or cells: HEK293 cells, transient liposome transfection of TRE-GluN1-GluN2A, tTA and pCAG-EGFP
Experimental: On the day before transfection, HEK293 cells were seeded in a 24-well plate with a 10 mm glass sheet, which was coated with polylysine in advance to increase the adhesion capacity of the cells. The plate was added with DMEM medium containing 10% FBS and incubated at 37° C., in 5% CO2 incubator. When the cell fusion reached 60%-70% after 18-24 hours, the plasmid cDNAs containing TRE-GluN1-GluN2A of human GluN1 and GluN2A, tTA, and pCAG-EGFP were transfected into HEK293 by liposome transfection (TRE-GluN1-GluN2A:tTA:pCAG-EGFP is 0.2 μg:0.2 μg:0.02 μg). Before transfection, anew DMEM medium was changed and added with 1 μg/mL Dox (doxycycline) to induce stable expression in the medium, and added with 100 μM D-APV and 10 mM MgCl2 to avoid cell excitatory toxicity caused by NMDAR overexpression. Cells with green fluorescence were selected for electrophysiological recording after transfection for about 24 h.
A glass plate seeded with HEK293 cells was placed in a recording bath and perfused with the extracellular fluid at a rate of 4 mL/min (NaCl 140 mM, KCl 2.8 mM, HEPES 10 mM, CaCl2 1 mM, glycine 0.1 mM, pH 7.2). The channels of the ALA-VC^3 eight-channel pressure perfusion system were filled with extracellular fluid for washing, extracellular fluid containing glutamic acid (100 μM), and extracellular fluid containing glutamic acid and compound to be tested, respectively, with a drop rate of about 1 drop/sec and 10 μL/drop. HEK293 cells with moderate green fluorescence intensity and good adhesion were selected under a fluorescence microscope for recording. The microglass tube of the perfusion system was placed about ten cells away from the cells to be recorded, and the drug was sprayed to the cell surface under the pressure of air (0.02 MPa). The glass electrode was prepared by drawing with a microelectrode drawing instrument with a resistance of 4-6 MΩ and filled with electrode liquid (CsCl 125 mM, HEPES 10 mM, EGTA 11 mM). The microelectrode manipulator was used to slowly push the glass electrode towards the cells. The electrode was attached to the cell membranes and applied with negative pressure, so that a high-resistance seal of more than 1 GΩ was formed between the electrode tip and the cell membrane, and then negative pressure was given to suck through the cell membrane to form a whole-cell recording mode. After the formation of whole-cell recording mode, the cell membrane potential was clamped at −70 mV. The extracellular fluid containing 100 μM glutamic acid, the extracellular fluid containing 100 μM glutamic acid and the compound to be tested, and the extracellular fluid were sprayed to the cell membrane surface sequentially through the perfusion system for 10 s, 20 s, and 10 s to record the NMDA receptor-mediated current and evaluate the inhibitory effect of the compound on GluN2A-containing NMDAR. The experimental process was controlled by pCLAMP 10.6, and the Digidata 1440A digital-to-analog converter was used to complete the generation of stimulus signal and the acquisition of feedback signal.
The ordinate in the figure is the normalized current ratio, which represents the ratio of the current mediated by NMDAR after administration of ketamine and the compound at a concentration of 10 μM to the current mediated by NMDAR before administration. […] Ketamine was used as a positive control.
The inhibitory percentages of the compound according to the present disclosure on NMDAR-mediated current=[…]/NMDAR mediated-current before administration*100%.

mice = assay: High dose toxicity test (behavior of mice after i.p. administration); format: in vivo; set-up: key to Rodent Epileptiform Behavior Scale score (maximum): 0: No abnormal behavior; 1: Unsteady walking/reduced exercise ability/immobility; 2: Generalized clonus/trembling/writhing; 3: The tail is stiff/swinging; 4: Forelimb contractures; 5: Generalized spasms/convulsions; 6: Startle or running convulsive seizures; 7: Generalized tonic-clonic seizures; 8: dead; conditions: for behavior during observation: observed about one hour; for Rodent Epileptiform Behavior Scale score (maximum): scale 0-8
Experimental: • 1. Experiments were performed in a quiet environment where animals needed to be weighed and acclimatized in the laboratory room for at least 30 min before the experiment. • 2. The compound to be tested was dissolved with 0.9% physiological saline at a concentration of 10 mg/ml. According to the body weight of mice, a corresponding volume of the compound was intraperitoneal injected (i.p.), so as to provide the target dose. • 3. The mice after administration were placed in transparent observation boxes, and the behavioral changes of the mice were recorded by video and observed for about one hour. (Note: During the observation period, if a mouse was lying still on the stomach, the mouse was turned over with your hand to check whether the righting reflex (RR) of the mouse disappeared. If it disappeared, the mouse was in the state of anesthesia, the time of anesthesia in the mouse was recorded). • 4. After one hour of observation, the mice were returned to the feeding cage and the observation boxes were wiped with 75% alcohol so that the information left over from the previous round (e.g. animal stool, urine and other odors) would not affect the next test results. Animals were replaced for the next round to continue the experiment.
Mice died after ketamine administration.
According to Rodent Epileptiform Behavior Scale score, Compound 9 induced epileptiform behavior in mice with a maximum score of 3. […] According to the Rodent Epileptiform Behavior Scale score. Compound 41 and 42 induced epileptiform behavior in mice with a maximum score of 1. […] The epileptiform behavior was scored according to the Rodent Epileptiform Behavior Scale score.

[2] = NMDAR-mediated current, HEK293 cells expressing human GluN1/GluN2A, 100 μM glutamic acid, clamped at −70 mV, compound 10 μM, read-out: current inhibitory percentages
[3] = high dose 150 mg/kg bw, formate, 150 mg/kg
[4] = medium dose 100 mg/kg body weight, formate, 100 mg/kg
[5] = medium dose 100 mg/kg body weight
[6] = medium dose 100 mg/kg body weight, hydrochloride, 100 mg/kg

T1 sequence (Q12879 23-1464, other chains not shown): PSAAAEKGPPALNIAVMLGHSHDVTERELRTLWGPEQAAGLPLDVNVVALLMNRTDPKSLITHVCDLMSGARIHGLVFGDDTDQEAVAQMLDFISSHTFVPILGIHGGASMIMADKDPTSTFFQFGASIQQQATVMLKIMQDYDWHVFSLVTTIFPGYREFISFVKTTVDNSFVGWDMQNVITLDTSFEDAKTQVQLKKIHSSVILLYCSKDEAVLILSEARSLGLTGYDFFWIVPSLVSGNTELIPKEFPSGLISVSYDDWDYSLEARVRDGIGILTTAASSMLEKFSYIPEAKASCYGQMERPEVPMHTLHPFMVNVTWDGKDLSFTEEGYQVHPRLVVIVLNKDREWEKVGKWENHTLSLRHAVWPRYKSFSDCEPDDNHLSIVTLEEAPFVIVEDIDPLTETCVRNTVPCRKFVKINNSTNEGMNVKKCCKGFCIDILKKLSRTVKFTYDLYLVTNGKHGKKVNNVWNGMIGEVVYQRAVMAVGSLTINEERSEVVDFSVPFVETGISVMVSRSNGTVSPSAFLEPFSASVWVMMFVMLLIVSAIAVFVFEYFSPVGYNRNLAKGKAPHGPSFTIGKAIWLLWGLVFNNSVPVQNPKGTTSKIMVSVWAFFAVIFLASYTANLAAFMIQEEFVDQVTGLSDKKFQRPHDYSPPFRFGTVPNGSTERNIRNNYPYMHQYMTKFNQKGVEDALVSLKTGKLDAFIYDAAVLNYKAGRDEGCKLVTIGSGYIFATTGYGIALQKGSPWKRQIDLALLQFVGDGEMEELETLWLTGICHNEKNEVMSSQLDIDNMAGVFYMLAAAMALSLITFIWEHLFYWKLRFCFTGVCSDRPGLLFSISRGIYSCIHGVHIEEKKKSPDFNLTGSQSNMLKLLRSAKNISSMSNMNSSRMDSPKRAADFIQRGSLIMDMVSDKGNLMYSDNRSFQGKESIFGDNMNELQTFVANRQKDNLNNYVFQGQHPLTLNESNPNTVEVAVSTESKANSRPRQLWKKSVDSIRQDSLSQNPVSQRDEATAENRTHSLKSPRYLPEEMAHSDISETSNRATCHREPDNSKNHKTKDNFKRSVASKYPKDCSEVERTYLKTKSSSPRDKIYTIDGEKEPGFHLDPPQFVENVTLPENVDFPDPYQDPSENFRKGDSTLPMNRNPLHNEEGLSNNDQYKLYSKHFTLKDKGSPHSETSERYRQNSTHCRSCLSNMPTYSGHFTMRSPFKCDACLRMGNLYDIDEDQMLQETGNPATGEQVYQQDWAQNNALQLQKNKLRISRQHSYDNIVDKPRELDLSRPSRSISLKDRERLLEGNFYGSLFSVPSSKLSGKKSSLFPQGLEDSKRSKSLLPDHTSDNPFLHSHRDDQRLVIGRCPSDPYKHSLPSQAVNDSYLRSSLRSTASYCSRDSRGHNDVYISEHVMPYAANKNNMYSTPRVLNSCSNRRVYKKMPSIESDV

SMILES	inhibition at 10 µM [1, 2]	behavior during observation (mice; [3])	behavior during observation (mice; [4])	Rodent Epileptiform Behavior Scale score (maximum) (mice; [5])	behavior during observation (mice; [6])	further results
Clc1cccc(C23CCCCC2OCCN3)c1 (racemic) [Compound 9, 4a-(3-chlorophenyl)octahydro-2H-benzo[b][1,4]oxazine formate]	88.8%	the state of anesthesia of mice returned to normal after half an hour; also recorded: the state of anesthesia lasted for half an hour	intermittent shaky waking, lying still on the stomach, and tail stiffness (seizure for about 10 seconds); also recorded: Moderate epilepsy	3	–	–
Clc1ccccc1C12CCCCC1OCCN2 (racemic) [Compound 11, 4a-(2-chlorophenyl)octahydro-2H-benzo[b][1,4]oxazine formate]	85%	the activity reduction in mice lasted for half an hour before returning to normal	decreased activity; also recorded: Mild epilepsy	1	–	–
Clc1cccc([C@]23CCCC[C@H]2OCCN3)c1 [Compound 41, (4aR,8aR)-4a-(3-chlorophenyl)octahydro-2H-benzo[b][1,4]oxazine hydrochloride]	92.9%	–	–	–	slightly shaky walking; also recorded: Slight shaking	–
Clc1cccc([C@@]23CCCC[C@@H]2OCCN3)c1 [Compound 42, (4aS,8aS)-4a-(3-chlorophenyl)octahydro-2H-benzo[b][1,4]oxazine hydrochloride]	105%	–	–	–	slightly shaky walking; also recorded: Slight shaking	–
Clc1ccccc1[C@@]12CCCC[C@@H]1OCCN2 [Compound 44, (4aS,8aS)-4a-(2-chlorophenyl)octahydro-2H-benzo[b][1,4]oxazine hydrochloride]	–	–	–	–	no obvious abnormalities; also recorded: No abnormal	–
CNC1(c2ccccc2Cl)CCCCC1=O (stereo not shown) [Ketamine, reference compound]	–	–	–	–	–	inhibition at 10 µM ([1]; HEK293, read-out: current inhibitory percentages): 102%; behavior during observation (mice; high dose 150 mg/kg bw, 150 mg/kg): dead; behavior during observation (mice; high dose 150 mg/kg bw, listed as ketamine, 150 mg/kg): Mice died
